These results are taken from ChEMBL document CHEMBL2440097, “Triphenylphosphonium salts of 1,2,4-benzothiadiazine 1,1-dioxides related to diazoxide targeting mitochondrial ATP-sensitive potassium channels” (Bioorg Med Chem Lett, 2013).

The test system of data set [1] is H9c2. Kind of data set: Effect on routine respiration in […] H9C2 cells at 10 uM by high resolution oxygraphic analysis. Format: functional, cell-based.
Data set [2] concerns H9c2. Put plainly: Effect on ATP production in […] H9C2 cells up to 10 uM after 24 hrs by CellTiter-Glo luminescent test. The format is functional, cell-based.
For data set [3], the system named is H9c2. Put plainly: Effect on metabolic activity in […] H9C2 cells up to 10 uM incubated for 1 hr followed by paraquat addition measured after 24 hrs by CellTiter 96 Aqueous non-radioactive cell proliferation assay. The format is functional, cell-based.
Data set [4] concerns H9c2. Put plainly: Effect on maximal respiratory capacity in […] H9C2 cells at 10 uM by high resolution oxygraphic analysis. The format is functional, cell-based.
Data set [5] has as its target Kir6.2/SUR1 (Rattus norvegicus) (UniProt P70673+Q09429). Put plainly: Activation of Kir6.2/SUR1 in rat pancreatic islets assessed as residual glucose-induced insulin release at 10 uM relative to control.
Data set [6] can be described thus: Drug uptake in mitochondria of […] H9C2 cells at 1 x 10^-4 M after 2 hrs by LC-MS analysis. The format is ADME. The conditions noted are these: h9c2, 2 h, 100 µM.
The nature of data set [7]: Drug uptake in cytosol of […] H9C2 cells at 1 x 10^-4 M after 2 hrs by LC-MS analysis. The conditions noted are these: 100 µM. Format: ADME, cell-based.
Data set [8] deals with H9c2. Kind of data set: Effect on oligomycin-inhibited leak respiration in […] H9C2 cells at 10 uM by high resolution oxygraphic analysis. The format is functional, cell-based.

Active and inactive are the calls of the source. The calls are words filed in the database; no cut-off is given here.

`C[C@H](COC(=O)CC[P+](c1ccccc1)(c1ccccc1)c1ccccc1)NC1=NS(=O)(=O)c2cc(Cl)ccc2N1`: the result in the data set on H9c2 [1], with H9c2 [2], in the data set on H9c2 [3] and with H9c2 [4] was inactive. In addition, the Activity in data set [5] was found to be 56%.

As for `C[C@H](COC(=O)CCC[P+](c1ccccc1)(c1ccccc1)c1ccccc1)NC1=NS(=O)(=O)c2cc(Cl)ccc2N1`, the result with H9c2 [1], in the data set with H9c2 [2], in the data set with H9c2 [3] and in the data set on H9c2 [4] was inactive. For the same compound, in data set [5], the Activity worked out at 63.7%.

Regarding `C[C@H](COC(=O)C[P+](c1ccccc1)(c1ccccc1)c1ccccc1)NC1=NS(=O)(=O)c2cc(Cl)ccc2N1.[Cl-]`, the outcome in the data set on H9c2 [1], in the data set on H9c2 [2], with H9c2 [3] and with H9c2 [4] was inactive. For the same compound, the Drug uptake result in data set [6] and in data set [7] was “Active” each time. The outcome in the data set on H9c2 [8] was Active. In data set [5], the Activity amounted to 27%.

With `CC1=Nc2ccc(Cl)cc2S(=O)(=O)N1`, the Activity in data set [5] is 73.9%.
